Measured values as given in ChEMBL document CHEMBL5726174, “Therapeutic compounds and uses thereof” (2019).

These compounds were tested against T1, Bromodomain-containing protein 9 (Homo sapiens, UniProt Q9H8M2) (assay: IC50 measurements for inhibitors using BRD9 AlphaLisa Binding Assay: His/Flag epitope tagged BRD9134-239 was cloned, expressed, and purified to homogeneity. […] After 20 minutes incubation at room temperature AlphaLisa Streptavidin Acceptor Beads (Perkin-AL125C) and AlphaLisa Nickel donor beads (Perkin AS 10 ID) were added to a final concentration of 15 ug/mL each.).
T1 sequence (Q9H8M2 whole entry): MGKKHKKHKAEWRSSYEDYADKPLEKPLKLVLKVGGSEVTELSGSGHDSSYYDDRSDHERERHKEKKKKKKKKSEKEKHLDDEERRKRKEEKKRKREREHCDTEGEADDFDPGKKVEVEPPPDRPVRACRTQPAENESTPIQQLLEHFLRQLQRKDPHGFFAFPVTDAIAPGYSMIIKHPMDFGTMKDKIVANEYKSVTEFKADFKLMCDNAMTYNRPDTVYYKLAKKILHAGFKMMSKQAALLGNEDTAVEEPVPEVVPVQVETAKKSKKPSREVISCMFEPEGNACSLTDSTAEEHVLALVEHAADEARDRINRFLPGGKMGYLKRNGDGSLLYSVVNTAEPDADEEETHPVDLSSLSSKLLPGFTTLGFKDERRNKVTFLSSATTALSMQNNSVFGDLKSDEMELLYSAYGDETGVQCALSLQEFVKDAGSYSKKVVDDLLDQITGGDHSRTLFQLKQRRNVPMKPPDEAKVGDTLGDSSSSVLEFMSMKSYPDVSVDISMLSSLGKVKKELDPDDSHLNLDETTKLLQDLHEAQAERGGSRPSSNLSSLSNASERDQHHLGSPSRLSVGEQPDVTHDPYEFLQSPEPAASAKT

Row | IC50 | Structure (SMILES)
1 | 46 nM | CCCCn1cc(-c2cc(C#N)ccc2OC)c2cc[nH]c2c1=O
2 | 280 nM | CC(C)(O)c1ccc(-c2cn(CCC3CC3)c(=O)c3[nH]ccc23)cc1
3 | 9 nM | C=CCn1cc(-c2cc(OC)c(C(=O)N3CCOCC3)cc2OC)c2cc(C)[nH]c2c1=O
4 | 28 nM | C/C=C/Cn1cc(-c2cc(C(=O)NCC)ccc2OC)c2cc[nH]c2c1=O
